ChEMBL document CHEMBL5126637, “Discovery of Phenolic Matrix Metalloproteinase Inhibitors by Peptide Microarray for Osteosarcoma Treatment” (J Nat Prod, 2022)
Activity calls are given as the source filed them.

Columns and labels:
[1] = biological target: T1, Matrix metalloproteinase-9 (Homo sapiens, UniProt P14780); test: Inhibition of MMP9 in human U2OS cells at 5 umol/L by peptide microarray-based fluorescence assay; format: cell-based; conditions: dose 5.0 µmol/L
[2] = biological target: T2, 72 kDa type IV collagenase (Homo sapiens, UniProt P08253); test: Inhibition of MMP2 in human U2OS cells at 5 umol/L by peptide microarray-based fluorescence assay; format: cell-based; conditions: dose 5.0 µmol/L
Target sequence in this assay (P08253 110-660 limits assumed): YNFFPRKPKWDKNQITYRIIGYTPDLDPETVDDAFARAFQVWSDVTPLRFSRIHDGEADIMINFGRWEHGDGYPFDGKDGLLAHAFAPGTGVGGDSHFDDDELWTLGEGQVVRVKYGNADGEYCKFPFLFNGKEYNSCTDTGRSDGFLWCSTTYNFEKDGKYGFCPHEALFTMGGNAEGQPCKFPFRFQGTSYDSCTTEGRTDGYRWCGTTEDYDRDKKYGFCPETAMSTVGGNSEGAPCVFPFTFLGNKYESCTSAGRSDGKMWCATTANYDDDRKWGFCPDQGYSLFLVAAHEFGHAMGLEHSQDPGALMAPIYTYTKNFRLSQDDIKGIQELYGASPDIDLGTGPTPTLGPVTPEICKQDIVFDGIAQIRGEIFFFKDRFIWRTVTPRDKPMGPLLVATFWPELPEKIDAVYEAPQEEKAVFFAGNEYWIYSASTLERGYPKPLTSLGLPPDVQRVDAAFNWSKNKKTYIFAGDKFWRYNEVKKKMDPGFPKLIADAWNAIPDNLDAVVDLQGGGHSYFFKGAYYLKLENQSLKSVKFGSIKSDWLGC

[3] = biological target: T3, Interstitial collagenase (Homo sapiens) (UniProt P03956); test: Inhibition of MMP1 in human U2OS cells at 5 umol/L by peptide microarray-based fluorescence assay; format: cell-based; conditions: dose 5.0 µmol/L
T3 sequence (whole entry): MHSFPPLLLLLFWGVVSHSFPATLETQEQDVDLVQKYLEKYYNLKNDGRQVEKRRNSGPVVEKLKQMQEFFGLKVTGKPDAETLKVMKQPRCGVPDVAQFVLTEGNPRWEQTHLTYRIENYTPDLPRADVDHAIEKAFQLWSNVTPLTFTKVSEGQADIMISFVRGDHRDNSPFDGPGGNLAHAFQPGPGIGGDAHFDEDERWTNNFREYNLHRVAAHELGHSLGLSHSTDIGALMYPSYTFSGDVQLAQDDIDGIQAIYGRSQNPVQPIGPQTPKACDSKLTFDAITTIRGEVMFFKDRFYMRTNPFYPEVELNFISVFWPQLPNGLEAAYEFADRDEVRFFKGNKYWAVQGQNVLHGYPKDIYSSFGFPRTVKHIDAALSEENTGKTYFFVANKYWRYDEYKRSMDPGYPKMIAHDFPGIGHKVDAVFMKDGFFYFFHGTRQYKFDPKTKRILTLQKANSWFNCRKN

[4] = biological target: T4, Matrilysin (Homo sapiens) (UniProt P09237); test: Inhibition of MMP7 in human U2OS cells at 5 umol/L by peptide microarray-based fluorescence assay; format: cell-based; conditions: dose 5.0 µmol/L
T4 sequence (whole entry): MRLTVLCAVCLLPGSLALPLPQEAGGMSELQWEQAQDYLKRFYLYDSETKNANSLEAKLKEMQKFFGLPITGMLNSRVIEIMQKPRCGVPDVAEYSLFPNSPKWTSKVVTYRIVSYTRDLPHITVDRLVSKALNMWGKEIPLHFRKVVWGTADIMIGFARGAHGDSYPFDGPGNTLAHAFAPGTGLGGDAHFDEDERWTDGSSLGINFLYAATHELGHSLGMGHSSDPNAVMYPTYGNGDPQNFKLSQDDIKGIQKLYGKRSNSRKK

Collagenase 3 [5] = biological target: T5, Collagenase 3 (Homo sapiens, UniProt P45452); test: Inhibition of MMP13 in human U2OS cells at 5 umol/L by peptide microarray-based fluorescence assay; format: cell-based; conditions: dose 5.0 µmol/L
Stromelysin-1 [6] = biological target: T6, Stromelysin-1 (Homo sapiens, UniProt P08254); test: Inhibition of MMP3 in human U2OS cells at 5 umol/L by peptide microarray-based fluorescence assay; format: cell-based; conditions: dose 5.0 µmol/L
Target sequence in this assay (P08254 100-477 limits assumed): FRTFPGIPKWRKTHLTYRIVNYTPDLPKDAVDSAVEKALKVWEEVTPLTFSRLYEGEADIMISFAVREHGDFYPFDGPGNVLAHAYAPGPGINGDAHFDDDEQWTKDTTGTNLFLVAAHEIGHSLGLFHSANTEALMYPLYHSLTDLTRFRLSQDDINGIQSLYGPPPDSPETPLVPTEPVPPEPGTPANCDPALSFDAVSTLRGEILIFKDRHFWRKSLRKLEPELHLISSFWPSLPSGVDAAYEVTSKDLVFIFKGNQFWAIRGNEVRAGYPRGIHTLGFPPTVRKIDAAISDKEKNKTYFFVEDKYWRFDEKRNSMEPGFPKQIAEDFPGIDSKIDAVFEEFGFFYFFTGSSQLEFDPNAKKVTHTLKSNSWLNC

U2OS [7] = test: Antitumor activity against human U2OS cells xenografted in NOD/SCID mouse assessed as inhibition of growth of both primary and metastatic tumors at 18 ug, iv dosed once every 2 days for 6 days successively relative to control; format: functional, organism-based; conditions: dose 18.0 µg, time 6.0 day
[8] = Toxicity in human HL7702 cells assessed as cell viability at 2.5 umol/L incubated for 24 hrs by MTT assay relative to control; format: cell-based, L02; conditions: dose 2.5 µmol/L, read-out: Activity
[9] = Toxicity in Kunming mouse assessed as induction of adverse effect or tissue damage in major organs measured after 14 days; conditions: in vivo, 336 h, time 14 day
Stromelysin-1 [10] = biological target: T6, Stromelysin-1; test: Inhibition of MMP3 in human U2OS cells at 1 umol/L by peptide microarray-based fluorescence assay; format: cell-based; conditions: dose 1.0 µmol/L
Target sequence in this assay (P08254 100-477 limits assumed): as above

[11] = biological target: T1, Matrix metalloproteinase-9; test: Inhibition of MMP9 in human U2OS cells by peptide microarray-based fluorescence assay; format: cell-based
Stromelysin-1 [12] = biological target: T6, Stromelysin-1; test: Inhibition of MMP3 in human U2OS cells by peptide microarray-based fluorescence assay; format: cell-based
Target sequence in this assay (P08254 whole entry): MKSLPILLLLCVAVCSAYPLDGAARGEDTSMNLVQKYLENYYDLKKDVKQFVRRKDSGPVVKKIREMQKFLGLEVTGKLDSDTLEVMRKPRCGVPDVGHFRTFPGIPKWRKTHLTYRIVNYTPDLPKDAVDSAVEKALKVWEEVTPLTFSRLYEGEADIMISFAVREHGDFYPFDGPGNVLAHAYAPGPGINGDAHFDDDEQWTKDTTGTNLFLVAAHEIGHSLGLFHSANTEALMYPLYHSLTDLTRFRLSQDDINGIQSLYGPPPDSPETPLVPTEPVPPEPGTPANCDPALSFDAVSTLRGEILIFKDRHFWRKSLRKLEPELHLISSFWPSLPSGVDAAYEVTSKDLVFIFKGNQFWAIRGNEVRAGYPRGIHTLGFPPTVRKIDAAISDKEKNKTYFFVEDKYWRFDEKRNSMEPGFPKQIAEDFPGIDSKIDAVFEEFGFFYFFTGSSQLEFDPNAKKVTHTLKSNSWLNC

[13] = Toxicity in human NCM460 cells assessed as cell viability at 2.5 umol/L incubated for 24 hrs by MTT assay relative to control; format: cell-based; conditions: dose 2.5 µmol/L, read-out: Activity
[14] = Toxicity in human U2OS cells assessed as cell viability at 2.5 umol/L incubated for 24 hrs by MTT assay relative to control; format: cell-based; conditions: dose 2.5 µmol/L, read-out: Activity
U2OS [15] = test: Inhibition of cell migration of human U2OS cells at 2.5 umol/L incubated for 24 hrs by would healing assay; format: functional, cell-based; conditions: dose 2.5 µmol/L
[16] = Toxicity in human MDA-MB-231 cells assessed as cell viability at 2.5 umol/L incubated for 24 hrs by MTT assay relative to control; format: cell-based; conditions: dose 2.5 µmol/L, read-out: Activity
U2OS [17] = test: Antitumor activity against human U2OS cells xenografted in NOD/SCID mouse assessed as inhibition of distant organ metastasis at 18 ug, iv dosed once every 2 days for 6 days successively relative to control; format: functional, organism-based; conditions: dose 18.0 µg, time 6.0 day
[18] = biological target: T1, Matrix metalloproteinase-9; test: Inhibition of MMP9 in human U2OS cells at 1 umol/L by peptide microarray-based fluorescence assay; format: cell-based; conditions: dose 1.0 µmol/L
Matrilysin = biological target: T7, Matrilysin (Homo sapiens, UniProt P09237); test: Inhibition of MMP7 in human U2OS cells by peptide microarray-based fluorescence assay; format: cell-based
T7 sequence (P09237 whole entry): T4 sequence (whole entry)

[19] = biological target: T4, Matrilysin (Homo sapiens); test: Inhibition of MMP7 in human U2OS cells at 1 umol/L by peptide microarray-based fluorescence assay; format: cell-based; conditions: dose 1.0 µmol/L
[20] = Toxicity in human HEK293T cells assessed as cell viability at 2.5 umol/L incubated for 24 hrs by MTT assay relative to control; format: cell-based, HEK-293T; conditions: dose 2.5 µmol/L, read-out: Activity
U2OS [21] = test: Antitumor activity against human U2OS cells xenografted in NOD/SCID mouse assessed as inhibition of tumor growth at 100 mg/kg, po dosed once every 2 days for 2 weeks relative to control; format: functional; conditions: 1008 h, time 6 weeks, read-out: TGI
Collagenase 3 [22] = biological target: T5, Collagenase 3; test: Inhibition of MMP13 in human U2OS cells by peptide microarray-based fluorescence assay; format: cell-based
U2OS [23] = test: Antitumor activity against human U2OS cells xenografted in NOD/SCID mouse assessed as time duration with 100% survival with at 18 ug, iv dosed once every 2 days for 6 days successively relative to control; format: functional; conditions: dose 18 µg, time 6 day
[24] = Toxicity in Kunming mouse assessed as effect on body weight changes measured after 14 days; conditions: in vivo, 336 h, time 14 day
[25] = Toxicity in human MCF7 cells assessed as cell viability at 2.5 umol/L incubated for 24 hrs by MTT assay relative to control; format: cell-based; conditions: dose 2.5 µmol/L, read-out: Activity
[26] = Toxicity in Kunming mouse assessed as effect on blood components measured after 14 days; conditions: in vivo, 336 h, time 14 day
[27] = biological target: T3, Interstitial collagenase (Homo sapiens); test: Inhibition of MMP1 in human U2OS cells at 1 umol/L by peptide microarray-based fluorescence assay; format: cell-based; conditions: dose 1.0 µmol/L
Interstitial collagenase = biological target: T8, Interstitial collagenase (Homo sapiens, UniProt P03956); test: Inhibition of MMP1 in human U2OS cells by peptide microarray-based fluorescence assay; format: cell-based
T8 sequence (P03956 whole entry): T3 sequence (whole entry)

U2OS [28] = test: Antitumor activity against human U2OS cells xenografted in NOD/SCID mouse assessed as inhibition of tumor growth at 18 ug, iv dosed once every 2 days for 6 days successively relative to control; format: functional; conditions: dose 18 µg, time 6 day
[29] = biological target: T2, 72 kDa type IV collagenase; test: Inhibition of MMP2 in human U2OS cells by peptide microarray-based fluorescence assay; format: cell-based
Target sequence in this assay (P08253 whole entry): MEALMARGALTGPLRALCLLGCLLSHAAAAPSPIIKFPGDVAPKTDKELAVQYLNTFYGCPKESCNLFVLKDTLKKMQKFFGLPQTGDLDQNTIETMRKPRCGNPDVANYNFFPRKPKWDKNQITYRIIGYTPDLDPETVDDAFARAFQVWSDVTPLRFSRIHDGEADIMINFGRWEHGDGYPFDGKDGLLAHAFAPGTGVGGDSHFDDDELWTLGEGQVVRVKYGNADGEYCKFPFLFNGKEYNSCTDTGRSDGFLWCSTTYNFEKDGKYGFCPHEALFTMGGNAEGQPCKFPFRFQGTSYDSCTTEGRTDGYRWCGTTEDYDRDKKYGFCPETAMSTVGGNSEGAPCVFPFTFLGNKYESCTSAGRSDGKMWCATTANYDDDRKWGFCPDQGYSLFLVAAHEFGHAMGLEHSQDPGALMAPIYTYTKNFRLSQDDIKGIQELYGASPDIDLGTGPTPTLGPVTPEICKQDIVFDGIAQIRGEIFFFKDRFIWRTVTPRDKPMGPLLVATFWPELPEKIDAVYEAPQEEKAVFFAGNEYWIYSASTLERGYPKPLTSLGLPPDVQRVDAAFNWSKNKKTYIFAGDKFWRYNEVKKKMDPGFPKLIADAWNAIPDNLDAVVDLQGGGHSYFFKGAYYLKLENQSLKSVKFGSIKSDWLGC

[30] = biological target: T2, 72 kDa type IV collagenase; test: Inhibition of MMP2 in human U2OS cells at 1 umol/L by peptide microarray-based fluorescence assay; format: cell-based; conditions: dose 1.0 µmol/L
Target sequence in this assay (P08253 110-660 limits assumed): as the sequence (P08253 110-660 limits assumed) above

Collagenase 3 [31] = biological target: T5, Collagenase 3; test: Inhibition of MMP13 in human U2OS cells at 1 umol/L by peptide microarray-based fluorescence assay; format: cell-based; conditions: dose 1.0 µmol/L
[32] = Toxicity in human HCT-116 cells assessed as cell viability at 2.5 umol/L incubated for 24 hrs by MTT assay relative to control; format: cell-based; conditions: dose 2.5 µmol/L, read-out: Activity
U2OS [33] = test: Antitumor activity against human U2OS cells xenografted in NOD/SCID mouse assessed as time duration with 100% survival with at 30 ug, iv dosed once every 2 days for 6 days successively relative to control; format: functional; conditions: dose 30 µg, time 6 day
U2OS [34] = test: Antitumor activity against human U2OS cells xenografted in NOD/SCID mouse assessed as inhibition of growth of both primary and metastatic tumors at 30 ug, iv dosed once every 2 days for 6 days successively relative to control; format: functional, organism-based; conditions: dose 30.0 µg, time 6.0 day
U2OS [35] = test: Antitumor activity against human U2OS cells xenografted in NOD/SCID mouse assessed as inhibition of distant organ metastasis at 30 ug, iv dosed once every 2 days for 6 days successively relative to control; format: functional, organism-based; conditions: dose 30.0 µg
U2OS [36] = test: Antitumor activity against human U2OS cells xenografted in NOD/SCID mouse assessed as inhibition of tumor growth at 30 ug, iv dosed once every 2 days for 6 days successively relative to control; format: functional; conditions: dose 30 µg, time 6 day

T1 sequence (P14780 whole entry): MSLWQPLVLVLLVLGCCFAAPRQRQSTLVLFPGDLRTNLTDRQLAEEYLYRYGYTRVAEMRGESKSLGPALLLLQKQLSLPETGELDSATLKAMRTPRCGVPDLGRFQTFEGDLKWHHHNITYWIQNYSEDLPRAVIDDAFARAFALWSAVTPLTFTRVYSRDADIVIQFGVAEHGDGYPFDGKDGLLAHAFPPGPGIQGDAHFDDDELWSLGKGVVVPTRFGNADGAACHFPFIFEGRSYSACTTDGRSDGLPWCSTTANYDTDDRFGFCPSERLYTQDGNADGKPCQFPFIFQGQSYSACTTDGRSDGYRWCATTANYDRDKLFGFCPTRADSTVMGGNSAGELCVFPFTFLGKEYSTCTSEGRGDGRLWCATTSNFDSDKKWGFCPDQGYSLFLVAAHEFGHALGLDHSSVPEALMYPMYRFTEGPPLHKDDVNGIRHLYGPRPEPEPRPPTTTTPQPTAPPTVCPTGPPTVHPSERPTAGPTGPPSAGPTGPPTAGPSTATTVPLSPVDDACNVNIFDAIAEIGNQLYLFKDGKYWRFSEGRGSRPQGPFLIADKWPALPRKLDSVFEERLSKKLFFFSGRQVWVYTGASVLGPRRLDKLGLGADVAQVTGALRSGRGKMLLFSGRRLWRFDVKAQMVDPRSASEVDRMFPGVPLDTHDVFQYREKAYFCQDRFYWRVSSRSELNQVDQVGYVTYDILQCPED

COc1ccc(-c2coc3cc(O[C@@H]4O[C@H](CO)[C@@H](O)[C@H](O)[C@H]4O)ccc3c2=O)cc1
> 50%: inhibition [1]

O=C(O)[C@H]1O[C@@H](Oc2cc3oc(-c4ccc(O)cc4)cc(=O)c3c(O)c2O)[C@H](O)[C@@H](O)[C@@H]1O
> 50%: inhibition [1] | inhibition [2] | inhibition [3] | inhibition [4] | inhibition (Collagenase 3 [5])

O=C1C[C@@H](c2ccc(O)cc2)Oc2cc(O)ccc21
> 50%: inhibition [1] | inhibition [2] | inhibition [3] | inhibition [4] | inhibition (Collagenase 3 [5]) | inhibition (Stromelysin-1 [6])

O=C(/C=C/c1ccc(O)cc1)c1ccc(O)cc1O [ISOLIQUIRITIGENIN]
81 nM: IC50 (Stromelysin-1 [12])
16 nM: IC50 (Interstitial collagenase)
72%: inhibition in vivo at 100 mg/kg (U2OS [21])
active: inhibition (U2OS [7]) | inhibition (Stromelysin-1 [10]) | inhibition (U2OS [15]) | inhibition (U2OS [17]) | inhibition [18] | inhibition [19] | inhibition [27] | inhibition [30] | inhibition (Collagenase 3 [31])
14 nM: IC50 (Collagenase 3 [22])
10 nM: IC50 [11] | IC50 [29]
Non-Toxic: Activity [9] | Activity [24] | Activity [26]
70 days: Survival (U2OS [23])
> 50%: inhibition [1] | inhibition [2] | inhibition [3] | inhibition [4] | inhibition (Collagenase 3 [5]) | inhibition (Stromelysin-1 [6])
> 90%: viability at 24 h, 2.5 µM [8] | viability at 24 h, 2.5 µM [13] | viability at 24 h, 2.5 µM [14] | viability at 24 h, 2.5 µM [16] | viability at 24 h, 2.5 µM [20] | viability at 24 h, 2.5 µM [25] | viability at 24 h, 2.5 µM [32]
8 nM: IC50 (Matrilysin)
80%: TGI (U2OS [28])

O=c1c2cc(O)c(O)cc2oc2cc(O)c([C@@H]3O[C@H](CO)[C@@H](O)[C@H](O)[C@H]3O)c(O)c12 [MANGIFERIN]
41 days: Survival (U2OS [33])
> 90%: viability at 24 h, 2.5 µM [8] | viability at 24 h, 2.5 µM [13] | viability at 24 h, 2.5 µM [14] | viability at 24 h, 2.5 µM [16] | viability at 24 h, 2.5 µM [20] | viability at 24 h, 2.5 µM [25] | viability at 24 h, 2.5 µM [32]
> 50%: inhibition [1] | inhibition [3]
active: inhibition (U2OS [34]) | inhibition (U2OS [15]) | inhibition (U2OS [35]) | inhibition [18] | inhibition [27]
250 nM: IC50 [11]
35%: TGI (U2OS [36])
Non-Toxic: Activity [9] | Activity [24] | Activity [26]
